Where two headings read alike, the source gives them in different places.
Target: DCN1 (DCUND1) protein PONY domain (Homo sapiens (Human), UniProt Q96GG9)
Assay: TR-FRET assay (binding to DCN-1, displacement of FAM-labeled probe)
Method in brief: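 Compounds read at 1, 5 and 24 h, 0.1% final DMSO, by TR-FRET between terbium-streptavidin on biotinylated DCN1 PONY domain (E. coli) and a FAM-tagged non-covalent inhibitor probe. Two setups used, 5 nM protein with 20 nM labelled probe, or 0.31 nM protein with 100 nM labelled plus 800 nM unlabelled probe; buffer had TritonX and 200 mM NaCl. % activity relative to high (with probe) and low (without probe) controls.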

[1] = 24 hr after treatment with compound, read-out: TR FRET IC50 24 hr
[2] = TR FRET IC50 1 hr (nM), 1 hr after treatment with compound
[3] = read-out: TR FRET IC50 1 hr, 1 hr after treatment with compound

Chain of DCN1 (DCUND1) protein PONY domain (Q96GG9 60-248): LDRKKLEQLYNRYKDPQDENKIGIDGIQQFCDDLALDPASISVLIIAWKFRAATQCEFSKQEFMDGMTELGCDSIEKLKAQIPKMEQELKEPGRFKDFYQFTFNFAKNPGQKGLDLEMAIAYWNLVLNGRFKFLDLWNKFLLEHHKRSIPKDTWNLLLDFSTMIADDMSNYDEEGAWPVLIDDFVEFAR

Structure (SMILES)	IC50 [1]	IC50 [2]	IC50 [3]
C=C(CC(=O)NCc1cccc([C@H]2c3cnn(-c4ccccc4)c3N(CC)C(=O)[C@@H]2NC(=O)c2cccc(C(F)(F)F)c2)c1)C(=O)OC [Compound I-109]	1000 to 3000 nM	1000 to 3000 nM	–
CCN1C(=O)[C@H](NC(=O)c2cccc(C(F)(F)F)c2)[C@@H](c2ccccc2NC(=O)CCl)c2c(C)nn(-c3ccccc3)c21 [Compound I-110, N-((4S,5R)-4-(2-(2-chloroacetamido)phenyl)-7-ethyl-3-methyl-6-oxo-1-phenyl-4,5,6,7-tetrahydro-1H-pyrazolo[3,4-b]pyridin-5-yl)-3-(trifluoromethyl)benzamide]	1000 to 3000 nM	1000 to 3000 nM	–
C/C=C(\CN1CCOCC1)C(=O)NCc1cccc([C@H]2c3cnn(-c4ccccc4)c3N(CC)C(=O)[C@@H]2NC(=O)c2cccc(C(F)(F)F)c2)c1 [Compound I-115]	1000 to 3000 nM	1000 to 3000 nM	–
CCN1C(=O)[C@H](NC(=O)c2cccc(C(F)(F)F)c2)[C@@H](c2cccc(CNC(=O)/C=C(\C)C(=O)OC)c2)c2cnn(-c3ccccc3)c21 [Compound I-116]	1000 to 3000 nM	1000 to 3000 nM	–
CCN1C(=O)[C@H](NC(=O)c2cccc(C(F)(F)F)c2)[C@@H](c2cccc(CNC(=O)C3=C(C(=O)OC)CC3)c2)c2cnn(-c3ccccc3)c21 [Compound I-118]	1000 to 3000 nM	1000 to 3000 nM	–
CCN1C(=O)[C@H](NC(=O)c2cccc(C(F)(F)F)c2)[C@@H](c2cccc(CNC(=O)C3=C(C(=O)OC)CCC3)c2)c2cnn(-c3ccccc3)c21 [Compound I-119]	1000 to 3000 nM	1000 to 3000 nM	–
C=C(CC(=O)OC)C(=O)NCc1cccc([C@H]2c3cnn(-c4ccccc4)c3N(CC)C(=O)[C@@H]2NC(=O)c2cccc(C(F)(F)F)c2)c1 [Compound I-121]	1000 to 3000 nM	1000 to 3000 nM	–
CCN1C(=O)[C@H](NC(=O)c2cccc(C(F)(F)F)c2)[C@@H](c2cccc(CNC(=O)/C(C)=C/C(=O)OC)c2)c2cnn(-c3ccccc3)c21 [Compound I-125]	1000 to 3000 nM	1000 to 3000 nM	–
CCN1C(=O)[C@H](NC(=O)c2cccc(C(F)(F)F)c2)[C@@H](c2cccc(CNC(=O)C3=CCN(C)C3)c2)c2cnn(-c3ccccc3)c21 [Compound I-128]	1000 to 3000 nM	1000 to 3000 nM	–
C=C(CN1CCN(C2COC2)CC1)C(=O)NCc1cccc([C@H]2c3cnn(-c4ccccc4)c3N(CC)C(=O)[C@@H]2NC(=O)c2cccc(C(F)(F)F)c2)c1 [Compound I-134]	200 to 1000 nM	1000 to 3000 nM	–
C=C(CN1CC2CCC(C1)O2)C(=O)NCc1cccc([C@@H]2c3cnn(-c4ccccc4)c3N(CC)C(=O)[C@H]2NC(=O)c2cccc(C(F)(F)F)c2)c1 [Compound I-136]	≤ 200 nM	–	≤ 200 nM
C=C(CN1C[C@@H]2C[C@H]1CO2)C(=O)NCc1cccc([C@@H]2c3cnn(-c4ccccc4)c3N(CC)C(=O)[C@@H]2NC(=O)c2cccc(C(F)(F)F)c2)c1 [Compound I-144]	200 to 1000 nM	1000 to 3000 nM	–
CCN1C(=O)[C@@H](NC(=O)c2cccc(C(F)(F)F)c2)[C@H](c2cc(F)cc(NC(=O)/C=C/CN(C)C)c2)c2cnn(-c3ccccc3)c21 [Compound I-151]	≤ 200 nM	1000 to 3000 nM	–
C/C=C(\CN1CCOCC1)C(=O)NCc1cccc([C@@H]2c3cnn(-c4ccccc4)c3N(CC)C(=O)[C@H]2NC(=O)c2cccc(C(F)(F)F)c2)c1 [Compound I-152]	≤ 200 nM	1000 to 3000 nM	–
C=C(CN(C)C1COC1)C(=O)NCc1cccc([C@H]2c3cnn(-c4ccccc4)c3N(CC)C(=O)[C@@H]2NC(=O)c2cccc(C(F)(F)F)c2)c1 [Compound I-154]	200 to 1000 nM	1000 to 3000 nM	–
CCN1C(=O)[C@@H](NC(=O)c2cccc(C(F)(F)F)c2)[C@H](c2cccc(CNC(=O)C3=C(C(=O)OC)CC3)c2)c2cnn(-c3ccccc3)c21 [Compound I-155]	≤ 200 nM	1000 to 3000 nM	–
C=C(CN1CC2(COC2)C1)C(=O)NCc1cccc([C@H]2c3cnn(-c4ccccc4)c3N(CC)C(=O)[C@H]2NC(=O)c2cccc(C(F)(F)F)c2)c1 [Compound I-156]	200 to 1000 nM	1000 to 3000 nM	–
C=C(COC)C(=O)Nc1cccc([C@H]2c3c(C)nn(-c4ccccc4)c3N(CC)C(=O)[C@@H]2NC(=O)c2cccc(C(F)(F)F)c2)c1 [Compound I-158]	≤ 200 nM	1000 to 3000 nM	–
C=C(CN1CC2(COC2)C1)C(=O)NCc1cccc([C@@H]2c3cnn(-c4ccccc4)c3N(CC)C(=O)[C@H]2NC(=O)c2nccc(C(F)(F)F)n2)c1 [Compound I-161]	≤ 200 nM	–	≤ 200 nM
C=C(CN1CCC1)C(=O)NCc1cccc([C@@H]2c3cnn(-c4ccccc4)c3N(CC)C(=O)[C@H]2NC(=O)c2nccc(C(F)(F)F)n2)c1 [Compound I-162]	≤ 200 nM	–	≤ 200 nM

Structure (SMILES)	IC50 [1]	IC50 [2]	IC50 [3]
C=C(CN1CCN(C2COC2)CC1)C(=O)NCc1cccc([C@@H]2c3cnn(-c4ccccc4)c3N(CC)C(=O)[C@H]2NC(=O)c2nccc(C(F)(F)F)n2)c1 [Compound I-163]	≤ 200 nM	–	≤ 200 nM
C/C=C(\CN1CC2(COC2)C1)C(=O)N(C)Cc1cccc([C@@H]2c3cnn(-c4ccccc4)c3N(CC)C(=O)[C@H]2NC(=O)c2nccc(C(F)(F)F)n2)c1 [Compound I-235]	1000 to 3000 nM	1000 to 3000 nM	–
C=C(CN1CC2CC1CO2)C(=O)NCc1cccc([C@@H]2c3c(C)nn(-c4ccccc4)c3N(CC)C(=O)[C@H]2NC(=O)c2cccc(C(F)(F)F)c2)c1 (some centres unmarked) [Compound I-236]	≤ 200 nM	–	≤ 200 nM
C/C=C(\CN1CCN(C2COC2)CC1)C(=O)N(C)Cc1cccc([C@@H]2c3cnn(-c4ccccc4)c3N(CC)C(=O)[C@H]2NC(=O)c2ccn(C(F)(F)F)n2)c1 [Compound I-237, N-((4R,5S)-7-ethyl-4-(3-(((E)-N-methyl-2-((4-(oxetan-3-yl)piperazin-1-yl)methyl)but-2-enamido)methyl)phenyl)-6-oxo-1-phenyl-4,5,6,7-tetrahydro-1H-pyrazolo[3,4-b]pyridin-5-yl)-1-(trifluoromethyl)-1H-pyrazole-3-carboxamide]	200 to 1000 nM	1000 to 3000 nM	–
CCN1C(=O)[C@@H](NC(=O)c2cccc(C(F)(F)F)c2)[C@H](c2cccc(CN(C)C/C=C/C(=O)OC(C)(C)C)c2)c2cnn(-c3ccccc3)c21 [Compound I-238, tert-butyl (E)-4-((3-((4R,5S)-7-ethyl-6-oxo-1-phenyl-5-(3-(trifluoromethyl)benzamido)-4,5,6,7-tetrahydro-1H-pyrazolo[3,4-b]pyridin-4-yl)benzyl)(methyl)amino)but-2-enoate]	1000 to 3000 nM	1000 to 3000 nM	–
C=C(CN(C)C1COC1)C(=O)N(C)Cc1cccc([C@@H]2c3cnn(-c4ccccc4)c3N(CC)C(=O)[C@H]2NC(=O)c2ccn(C3CC3)n2)c1 [Compound I-239]	–	1000 to 3000 nM	–
C/C=C(\CN1CCOCC1)C(=O)NCc1cccc([C@@H]2c3cnn(-c4ccccc4)c3N(CC)C(=O)[C@H]2NC(=O)c2ccn(C3CC3)n2)c1 [Compound I-241]	≤ 200 nM	1000 to 3000 nM	–
C/C=C(\CN1CC2(COC2)C1)C(=O)NCc1cccc([C@@H]2c3cnn(-c4ccccc4)c3N(CC)C(=O)[C@H]2NC(=O)c2nccc(C(F)(F)F)n2)c1 [Compound I-243]	≤ 200 nM	200 to 1000 nM	–
CCN1C(=O)[C@@H](NC(=O)c2cccc(C(F)(F)F)c2)[C@H](c2cccc(CNC(=O)C3=CCN(C)C3)c2)c2c(C)nn(-c3ccccc3)c21 [Compound I-244]	≤ 200 nM	1000 to 3000 nM	–
CCN1C(=O)[C@@H](NC(=O)c2nccc(C(F)(F)F)n2)[C@H](c2cccc(NC(=O)/C=C/C(=O)N(C)C)c2)c2c(C)nn(-c3ccccc3)c21 [Compound I-245]	1000 to 3000 nM	1000 to 3000 nM	–
C=C(CN1CCC12COC2)C(=O)NCc1cccc([C@@H]2c3cnn(-c4ccccc4)c3N(CC)C(=O)[C@H]2NC(=O)c2nccc(C(F)(F)F)n2)c1 [Compound I-246]	≤ 200 nM	–	≤ 200 nM
C=C(CN1CCC12COC2)C(=O)NCc1cccc([C@@H]2c3cnn(-c4ccccc4)c3N(CC)C(=O)[C@H]2NC(=O)c2ccn(C(F)(F)F)n2)c1 [Compound I-247]	≤ 200 nM	200 to 1000 nM	–
C/C=C(\CN(C)C1COC1)C(=O)NCc1cccc([C@@H]2c3cnn(-c4ccccc4)c3N(CC)C(=O)[C@H]2NC(=O)c2ccn(C(F)(F)F)n2)c1 [Compound I-248]	≤ 200 nM	200 to 1000 nM	–
CCN1C(=O)[C@@H](NC(=O)c2nccc(C(F)(F)F)n2)[C@H](c2cccc(C(=O)N3CCC[C@H]3C#N)c2)c2cnn(-c3ccccc3)c21 [Compound I-249]	1000 to 3000 nM	1000 to 3000 nM	–
C/C=C(\CN1CCC12COC2)C(=O)Nc1cccc([C@@H]2c3cnn(-c4ccccc4)c3N(CC)C(=O)[C@H]2NC(=O)c2nccc(C(F)(F)F)n2)c1 [Compound I-251]	≤ 200 nM	1000 to 3000 nM	–
C=C(CN1CC2CC(C1)O2)C(=O)N(C)Cc1cccc([C@@H]2c3cnn(-c4ccccc4)c3N(CC)C(=O)[C@H]2NC(=O)c2ccn(C(F)(F)F)n2)c1 [Compound I-253]	≤ 200 nM	1000 to 3000 nM	–
C=C(CN(C)C1COC1)C(=O)N(C)Cc1cccc([C@@H]2c3cnn(-c4ccccc4)c3N(CC)C(=O)[C@H]2NC(=O)c2nccc(C(F)(F)F)n2)c1 [Compound I-254]	–	1000 to 3000 nM	–
CCN1C(=O)[C@@H](NC(=O)c2cccc(C(F)(F)F)c2)[C@H](c2cccc(CN(C)C/C=C/C(=O)N3CCCC3)c2)c2cnn(-c3ccccc3)c21 [Compound I-255]	1000 to 3000 nM	1000 to 3000 nM	–
C=C(C(=O)NCc1cccc([C@@H]2c3cnn(-c4ccccc4)c3N(CC)C(=O)[C@H]2NC(=O)c2nccc(C(F)(F)F)n2)c1)C(C)N1CCC12COC2 (some centres unmarked) [Compound I-256]	≤ 200 nM	200 to 1000 nM	–
C=C(CN1CC2CC(C1)O2)C(=O)N(C)Cc1cccc([C@@H]2c3cnn(-c4ccccc4)c3N(CC)C(=O)[C@H]2NC(=O)c2ccn(C3CC3)n2)c1 [Compound I-258]	–	1000 to 3000 nM	–
